This assay deals with T1, human LPA1 (Homo sapiens, UniProt Q92633).
T1 construct: expressed in transfected cells; host or cells: Chinese hamster ovary (CHO) cells
Kind of assay: LPA1 functional antagonist assay (LPA-induced calcium flux in CHO cells overexpressing human LPA1). In kind it is cell-based. To be noted: inhibition of calcium flux induced by 10 nM LPA, CHO cells overexpressing human LPA1; read-out: hLPA1 IC50. The method in brief:
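CHO cells overexpressing human LPA1, dye-loaded 30 min at 37 °C, then given compound (0.08 nM–5 μM final, 0.5% DMSO) in HBSS/20 mM HEPES/0.1% fatty-acid-free BSA for 20 min at room temperature before 10 nM LPA. IC50 as 50% inhibition of LPA-evoked calcium flux, 4-parameter logistic fit.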
Background: A change in cytosolic calcium serves as a functional read-out for many receptors and channels.

For orientation: IC50 means the point on the concentration scale where inhibition reaches its midpoint.

T1 sequence (Q92633 whole entry): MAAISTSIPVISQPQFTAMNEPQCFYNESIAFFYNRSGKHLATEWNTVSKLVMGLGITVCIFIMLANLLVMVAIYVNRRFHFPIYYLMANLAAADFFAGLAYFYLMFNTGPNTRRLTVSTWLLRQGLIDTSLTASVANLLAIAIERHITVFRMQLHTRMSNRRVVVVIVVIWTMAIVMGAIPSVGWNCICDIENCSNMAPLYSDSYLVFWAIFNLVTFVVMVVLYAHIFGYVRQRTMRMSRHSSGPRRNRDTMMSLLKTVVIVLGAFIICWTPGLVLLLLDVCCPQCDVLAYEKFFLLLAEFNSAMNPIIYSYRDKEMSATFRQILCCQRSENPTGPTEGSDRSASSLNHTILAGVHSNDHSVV

As to `CCC(C)n1cnc(OCc2c(-c3ccc(O[C@H]4CCC[C@H](C(=O)O)C4)c(C)n3)nnn2C)n1` (stereo partly drawn) [Example 142], the IC50 amounted to 509 nM.

`Cc1nc(-c2nnn(C)c2COc2nnn(CC3CC3)n2)ccc1O[C@H]1CCC[C@H](C(=O)O)C1` [Example 143]: the IC50 amounted to 24 nM.

As to `Cc1nc(-c2nnn(C)c2COc2nnnn2CC(C)C)ccc1O[C@H]1CCC[C@H](C(=O)O)C1` [Example 144], the IC50 stood at 94 nM.

For the molecule `Cc1nc(-c2nnn(C)c2CNc2noc(COC(C)C)n2)ccc1O[C@H]1CCC[C@H](C(=O)O)C1` [Example 145], the IC50 was determined as 31 nM.

As for `COCCCc1nc(NCc2c(-c3ccc(O[C@H]4CCC[C@H](C(=O)O)C4)c(C)n3)nnn2C)no1` [Example 146], the IC50 was determined as 103 nM.

In the case of `CCOCc1nc(NCc2c(-c3ccc(O[C@H]4CCC[C@H](C(=O)O)C4)c(C)n3)nnn2C)no1` [Example 147], the IC50 was determined as 45 nM.

With `Cc1nc(-c2nnn(C)c2CNc2noc(C3(F)CCC3)n2)ccc1O[C@H]1CCC[C@H](C(=O)O)C1` [Example 148], the IC50 stood at 19 nM.

For `CCC(C)n1cnc(NCc2c(-c3ccc(O[C@H]4CCC[C@H](C(=O)O)C4)c(C)n3)nnn2C)n1` (stereo partly drawn) [Example 149], the IC50 turned out to be 221 nM.

With `CCCCn1cnc(NCc2c(-c3ccc(O[C@H]4CCC[C@H](C(=O)O)C4)c(C)n3)nnn2C)n1` [Example 150], the concentration for half-maximal inhibition (IC50) worked out at 68.2 nM.

For `Cc1nc(-c2nnn(C)c2CNc2noc(C3CCOC3)n2)ccc1O[C@H]1CCC[C@H](C(=O)O)C1` (stereo partly drawn) [Example 151], the IC50 was found to be 114 nM.

`Cc1nc(-c2nnn(C)c2CNc2ncn(CC3CC3)n2)ccc1O[C@H]1CCC[C@H](C(=O)O)C1` [Example 152]: the IC50 turned out to be 179 nM.

As to `Cc1nc(-c2nnn(C)c2CNc2noc(C3CC(F)(F)C3)n2)ccc1O[C@H]1CCC[C@H](C(=O)O)C1` [Example 153], the IC50 worked out at 46.1 nM.

As for `Cc1nc(-c2nnn(C)c2CNc2noc(C3(C)CC3)n2)ccc1O[C@H]1CCC[C@H](C(=O)O)C1` [Example 154], the IC50 came out at 441 nM.

For `Cc1nc(-c2nnn(C)c2CNc2noc(C(C)(C)C)n2)ccc1O[C@H]1CCC[C@H](C(=O)O)C1` [Example 155], the IC50 came to 85 nM.

For `Cc1nc(-c2nnn(C)c2CNc2nc(CC3CCC3)no2)ccc1O[C@H]1CCC[C@H](C(=O)O)C1` [Example 156], the IC50 was 29 nM.

Regarding `Cc1nc(-c2nnn(C)c2CNc2nc(CC(C)C)no2)ccc1O[C@H]1CCC[C@H](C(=O)O)C1` [Example 157], the IC50 came to 53 nM.

On to `Cc1nc(-c2nnn(C)c2CNc2nc(CCC(C)C)no2)ccc1O[C@H]1CCC[C@H](C(=O)O)C1` [Example 158], for which the IC50 was 21 nM.

For the molecule `Cc1nc(-c2nnn(C)c2CNc2noc(CCC3CC3)n2)ccc1O[C@H]1CCC[C@H](C(=O)O)C1` [Example 165], the IC50 was found to be 6 nM.

In the case of `Cc1nc(-c2nnn(C)c2CNc2noc(CCC3CCC3)n2)ccc1O[C@H]1CCC[C@H](C(=O)O)C1` [Example 166], the IC50 amounted to 5 nM.

Turning to `Cc1nc(-c2nnn(C)c2CNc2noc(CCC(C)F)n2)ccc1O[C@H]1CCC[C@H](C(=O)O)C1` (stereo partly drawn) [Example 167], the half-maximal inhibitory concentration (IC50) was 16 nM.

As to `Cc1nc(-c2nnn(C)c2CNc2cc(C(C)C)no2)ccc1O[C@H]1CCC[C@H](C(=O)O)C1` [Example 168], the IC50 was 84 nM.

On to `Cc1nc(-c2nnn(C)c2CNc2cc(C(C)(C)C)on2)ccc1O[C@H]1CCC[C@H](C(=O)O)C1` [Example 169], for which the concentration for half-maximal inhibition (IC50) turned out to be 63 nM.

For `CCC(C)Cc1nc(NCc2c(-c3ccc(O[C@H]4CCC[C@H](C(=O)O)C4)c(C)n3)nnn2C)no1` (stereo partly drawn) [Example 170], the IC50 worked out at 18 nM.

With `CCCC(C)c1nc(NCc2c(-c3ccc(O[C@H]4CCC[C@H](C(=O)O)C4)c(C)n3)nnn2C)no1` (stereo partly drawn) [Example 171], the IC50 worked out at 12 nM.

Take `COCCc1nc(NCc2c(-c3ccc(O[C@H]4CCC[C@H](C(=O)O)C4)c(C)n3)nnn2C)no1` [Example 172]: the IC50 stood at 120 nM.

Consider `Cc1nc(-c2nnn(C)c2CNc2noc(C3CC3)n2)ccc1O[C@H]1CCC[C@H](C(=O)O)C1` [Example 173], for which the IC50 turned out to be 266 nM.

As to `Cc1nc(-c2nnn(C)c2CNc2noc(C(C)C)n2)ccc1O[C@H]1CCC[C@H](C(=O)O)C1` [Example 174], the IC50 came to 223 nM.

With `Cc1nc(-c2nnn(C)c2CNc2noc(C3CCC3)n2)ccc1O[C@H]1CCC[C@H](C(=O)O)C1` [Example 175], the half-inhibitory concentration (IC50) was determined as 20 nM.

Turning to `Cc1nc(-c2nnn(C)c2CNc2noc(C3CCCC3)n2)ccc1O[C@H]1CCC[C@H](C(=O)O)C1` [Example 176], the IC50 was 25.4 nM.

Consider `Cc1nc(-c2nnn(C)c2CNc2noc(CCCC(F)(F)F)n2)ccc1O[C@H]1CCC[C@H](C(=O)O)C1` [Example 177], for which the IC50 was 9.1 nM.

Consider `CCC(C)c1nc(NCc2c(-c3ccc(O[C@H]4CCC[C@H](C(=O)O)C4)c(C)n3)nnn2C)no1` (stereo partly drawn) [Example 178], for which the IC50 is 27.4 nM.

Consider `Cc1nc(-c2nnn(C)c2CNc2noc(CCC(C)(C)F)n2)ccc1O[C@H]1CCC[C@H](C(=O)O)C1` [Example 179], for which the IC50 turned out to be 43.5 nM.

For `Cc1nc(-c2nnn(C)c2CNc2noc(C3CC3C)n2)ccc1O[C@H]1CCC[C@H](C(=O)O)C1` (stereo partly drawn) [Example 180], the IC50 is 42.1 nM.

With `Cc1nc(-c2nnn(C)c2CNc2noc(C3CC3(C)C)n2)ccc1O[C@H]1CCC[C@H](C(=O)O)C1` (stereo partly drawn) [Example 181], the IC50 came to 24.1 nM.

Regarding `Cc1nc(-c2nnn(C)c2CNc2noc(C3CC3(C)C)n2)ccc1O[C@H]1CCC[C@H](C(=O)O)C1` (stereo partly drawn) [Example 182], the IC50 turned out to be 17 nM.

With `Cc1nc(-c2nnn(C)c2CNc2noc(CCCCF)n2)ccc1O[C@H]1CCC[C@H](C(=O)O)C1` [Example 183], the IC50 worked out at 32 nM.

As to `Cc1nc(-c2nnn(C)c2CNc2noc(CCCF)n2)ccc1O[C@H]1CCC[C@H](C(=O)O)C1` [Example 184], the IC50 is 74 nM.

For `Cc1nc(-c2nnn(C)c2CNc2noc(C(C)C3CC3)n2)ccc1O[C@H]1CCC[C@H](C(=O)O)C1` (stereo partly drawn) [Example 185], the IC50 is 24 nM.

For `Cc1nc(-c2nnn(C)c2CNc2noc(C3CCC(F)(F)C3)n2)ccc1O[C@H]1CCC[C@H](C(=O)O)C1` (stereo partly drawn) [Example 186], the IC50 came out at 79 nM.

For `Cc1nc(-c2nnn(C)c2CNc2noc(CCC3(C)CC3)n2)ccc1O[C@H]1CCC[C@H](C(=O)O)C1` [Example 187], the IC50 came out at 31 nM.

As to `Cc1nc(-c2nnn(C)c2CNc2noc(CCC(C)(F)F)n2)ccc1O[C@H]1CCC[C@H](C(=O)O)C1` [Example 188], the IC50 stood at 42 nM.

As for `Cc1nc(-c2nnn(C)c2CNc2noc(C3CC(F)C3)n2)ccc1O[C@H]1CCC[C@H](C(=O)O)C1` (stereo partly drawn) [Example 189], the IC50 is 74 nM.

Turning to `Cc1nc(-c2nnn(C)c2CNc2noc(C3CC(F)C3)n2)ccc1O[C@H]1CCC[C@H](C(=O)O)C1` (stereo partly drawn) [Example 190], the IC50 amounted to 55 nM.

For the molecule `Cc1nc(-c2nnn(C)c2CNc2noc([C@H]3C[C@@](C)(F)C3)n2)ccc1O[C@H]1CCC[C@H](C(=O)O)C1` [Example 191], the IC50 was found to be 112 nM.

As for `Cc1nc(-c2nnn(C)c2CNc2noc([C@H]3C[C@](C)(F)C3)n2)ccc1O[C@H]1CCC[C@H](C(=O)O)C1` [Example 192], the IC50 turned out to be 52 nM.

Consider `Cc1nc(-c2nnn(C)c2CNc2noc(C(C)C3CC3)n2)ccc1O[C@H]1CCC[C@H](C(=O)O)C1` (stereo partly drawn) [Example 193], for which the IC50 came out at 33 nM.

As for `Cc1nc(-c2nnn(C)c2CNc2noc(C(C)C3CC3)n2)ccc1O[C@H]1CCC[C@H](C(=O)O)C1` (stereo partly drawn) [Example 194], the IC50 was 25 nM.

Regarding `Cc1nc(-c2nnn(C)c2CNc2noc(CC3CC3(F)F)n2)ccc1O[C@H]1CCC[C@H](C(=O)O)C1` (stereo partly drawn) [Example 195], the IC50 was determined as 25 nM.

For `Cc1nc(-c2nnn(C)c2CNc2noc(CC3CC3(F)F)n2)ccc1O[C@H]1CCC[C@H](C(=O)O)C1` (stereo partly drawn) [Example 196], the IC50 stood at 28 nM.

For the molecule `CCCC(C)(C)c1nc(NCc2c(-c3ccc(O[C@H]4CCC[C@H](C(=O)O)C4)c(C)n3)nnn2C)no1` [Example 197], the IC50 is 42 nM.

For the molecule `Cc1nc(-c2nnn(C)c2CNc2noc(C3CC(C)C3)n2)ccc1O[C@H]1CCC[C@H](C(=O)O)C1` (stereo partly drawn) [Example 198], the IC50 amounted to 28 nM.

Consider `Cc1nc(-c2nnn(C)c2CNc2noc(C3CC(C)C3)n2)ccc1O[C@H]1CCC[C@H](C(=O)O)C1` (stereo partly drawn) [Example 199], for which the IC50 came out at 33 nM.

As for `Cc1nc(-c2nnn(C)c2CNc2noc(CCC(C)F)n2)ccc1O[C@H]1CCC[C@H](C(=O)O)C1` (stereo partly drawn) [Example 200], the IC50 came out at 31 nM.

For `Cc1nc(-c2nnn(C)c2CNc2noc(CCC(C)F)n2)ccc1O[C@H]1CCC[C@H](C(=O)O)C1` (stereo partly drawn) [Example 201], the IC50 was found to be 32 nM.

As for `C=CCC(C)c1nc(NCc2c(-c3ccc(O[C@H]4CCC[C@H](C(=O)O)C4)c(C)n3)nnn2C)no1` (stereo partly drawn) [Example 202], the IC50 came out at 8.4 nM.

For `C=C1CC(c2nc(NCc3c(-c4ccc(O[C@H]5CCC[C@H](C(=O)O)C5)c(C)n4)nnn3C)no2)C1` [Example 203], the IC50 worked out at 11.5 nM.

On to `Cc1nc(-c2nnn(C)c2CNc2noc(C3CC34CC4)n2)ccc1O[C@H]1CCC[C@H](C(=O)O)C1` (stereo partly drawn) [Example 204], for which the IC50 stood at 18.1 nM.

For `Cc1nc(-c2nnn(C)c2CNc2noc(C3CC34CC4)n2)ccc1O[C@H]1CCC[C@H](C(=O)O)C1` (stereo partly drawn) [Example 205], the IC50 came out at 24 nM.

Turning to `Cc1nc(-c2nnn(C)c2Cn2ncnc2C2CC2)ccc1O[C@H]1CCC[C@H](C(=O)O)C1` [Example 206], the IC50 is 1090 nM.

As for `Cc1nc(-c2nnn(C)c2Cn2ncnc2-c2ccccc2)ccc1O[C@H]1CCC[C@H](C(=O)O)C1` [Example 207, (1S,3S)-3-((2-Methyl-6-(1-methyl-5-((5-phenyl-1H-1,2,4-triazol-1-yl)methyl)-1H-1,2,3-triazol-4-yl)pyridin-3-yl)oxy)cyclohexane-1-carboxylic acid], the IC50 was determined as 213 nM.

These data come from patent US11319315B2, “Cyclohexyl acid triazole azoles as LPA antagonists” (BRISTOL-MYERS SQUIBB COMPANY, priority 2017, dated 2022).
